Experimental data published in patent US20250115569A1, “SULFONAMIDE COMPOUNDS FOR THE TREATMENT OF NEUROLOGICAL CONDITIONS” (LARIO THERAPEUTICS LIMITED, priority 2021, published 2025).

Assays:
Cav2.3 [1] = target: T1, Cav2.3 (Homo sapiens, UniProt Q15878); test: Whole-cell patch clamp assay (QPatch) in HEK-293 T-Rex/Kir2.1/Cav2.3e-β4-α2δ1 cells; format: cell-based; conditions: QPatch 16X, room temperature, mean ± S.E, read-out: Cav2.3 (pIC50) (converted)
Method: HEK-293 T-Rex/Kir2.1/Cav2.3e-β4-α2δ1 cells were seeded 96 hours before experiment and doxycycline at 0.2 μg/mL was added 24 hours before experiment. Just before the experiments cells were washed twice with D-PBS w/o Ca^2+/Mg^2+ and gently detached from the flask with Detachin. Cells were then re-suspended in the suspension solution (25 mL EX-CELL ACF CHO medium; 0.25 mL of 100× Penicillin/Streptomycin) and placed on the Automated Patch-clamp platform (QPatch 16X).
Standard whole-cell voltage clamp experiments were performed at room temperature using the single hole technology and the following intracellular and extracellular solutions (ICS and ECS, respectively) were used. ICS (mM): CsF 60, CsCl 50, NaCl 10, EGTA 20, BAPTA 5, HEPES 10, NaGTP 0.3, MgATP 5 (pH 7.2; ECS (mM): NMDG-Cl 120, BaCl2 20, HEPES 10, EGTA 7 (pH 7.4). After establishment of the seal and the passage in the whole-cell configuration, the Cav2.3 dependent current was evoked by challenging the cells with the following voltage protocol: the plasma membrane was held at −80 mV then a 50 ms-long depolarizing pulse at 0 mV, followed by a 50 ms-long hyperpolarizing pulse at −100 mV were applied and finally the plasma membrane was held back to −80 mV. This voltage protocol was applied every 10 seconds. Cav2.3 dependent current was first measured in control condition (vehicle, 0.1% DMSO), in the presence of increasing concentration of the compound under investigation and finally SNX 482 was added to fully block any R-type Cav2.3 dependent current.
For data collection, the Sophion proprietary software was used while the analysis was performed off-line using Excel and GraphPad Prism. The inward current (Area Under Curve) measured during each depolarizing pulse was normalized to cell membrane capacitance (Cm) to obtain the average inward current density in each condition (control, compound under investigation and SNX 482). Then, the inhibitory effect of the compound under investigation was evaluated as % of the remaining inward current, normalized to the internal control. […] All data were expressed as mean±S.E

Human Cav2.3 channel = Human Cav2.3 channel calcium-influx assay; format: cell-based; conditions: Fluo8 fluorescence, HEK-293 T-Rex/Kir2.1/Cav2.3e cells, without pluronic acid
In short: (§1)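 HEK-293 T-Rex/Kir2.1 cells with doxycycline (0.2 μg/mL)-inducible Cav2.3e plus Cavβ4-α2δ1, loaded with Fluo8 NW in 0 mM K+ Tyrode's. Compounds (8 points, top 30 μM, half-log, 0.3% final DMSO, n=4) preincubated 3 min at RT, then depolarized with 20 mM KCl/2 mM CaCl2 (final); fluorescence read 130 s.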

Cav2.3 [2] = target: T1, Cav2.3; test: Human Cav2.3 channel calcium-influx assay; format: cell-based; conditions: Fluo8 fluorescence, HEK-293 T-Rex/Kir2.1/Cav2.3e cells, without pluronic acid, read-out: Cav2.3 (pIC50) (converted)
In short: as §1

MES model of epilepsy = test: Maximal electroshock stimulation model (MES) in mouse; format: in vivo; conditions: 1.5 mg/kg, oral administration
Method: Compounds of the invention were tested in an in vivo model of epilepsy, the MES model in mouse, according to the method described in Kehne et al, Neurochemistry Research 42:1894-1903 (2017) 1 https://doi.org/10.1007/s11064-017-2275-z.

[3] = target: R-type calcium current in substantia nigra dopamine neurons (Mus musculus (Mouse), UniProt Q61290); test: Ex vivo whole cell patch clamp in substantia nigra dopamine neurons, mouse brain slice; format: cell-based; conditions: concentrations of 10 μM
R-type calcium current in substantia nigra dopamine neurons, sequence (Q61290 whole entry): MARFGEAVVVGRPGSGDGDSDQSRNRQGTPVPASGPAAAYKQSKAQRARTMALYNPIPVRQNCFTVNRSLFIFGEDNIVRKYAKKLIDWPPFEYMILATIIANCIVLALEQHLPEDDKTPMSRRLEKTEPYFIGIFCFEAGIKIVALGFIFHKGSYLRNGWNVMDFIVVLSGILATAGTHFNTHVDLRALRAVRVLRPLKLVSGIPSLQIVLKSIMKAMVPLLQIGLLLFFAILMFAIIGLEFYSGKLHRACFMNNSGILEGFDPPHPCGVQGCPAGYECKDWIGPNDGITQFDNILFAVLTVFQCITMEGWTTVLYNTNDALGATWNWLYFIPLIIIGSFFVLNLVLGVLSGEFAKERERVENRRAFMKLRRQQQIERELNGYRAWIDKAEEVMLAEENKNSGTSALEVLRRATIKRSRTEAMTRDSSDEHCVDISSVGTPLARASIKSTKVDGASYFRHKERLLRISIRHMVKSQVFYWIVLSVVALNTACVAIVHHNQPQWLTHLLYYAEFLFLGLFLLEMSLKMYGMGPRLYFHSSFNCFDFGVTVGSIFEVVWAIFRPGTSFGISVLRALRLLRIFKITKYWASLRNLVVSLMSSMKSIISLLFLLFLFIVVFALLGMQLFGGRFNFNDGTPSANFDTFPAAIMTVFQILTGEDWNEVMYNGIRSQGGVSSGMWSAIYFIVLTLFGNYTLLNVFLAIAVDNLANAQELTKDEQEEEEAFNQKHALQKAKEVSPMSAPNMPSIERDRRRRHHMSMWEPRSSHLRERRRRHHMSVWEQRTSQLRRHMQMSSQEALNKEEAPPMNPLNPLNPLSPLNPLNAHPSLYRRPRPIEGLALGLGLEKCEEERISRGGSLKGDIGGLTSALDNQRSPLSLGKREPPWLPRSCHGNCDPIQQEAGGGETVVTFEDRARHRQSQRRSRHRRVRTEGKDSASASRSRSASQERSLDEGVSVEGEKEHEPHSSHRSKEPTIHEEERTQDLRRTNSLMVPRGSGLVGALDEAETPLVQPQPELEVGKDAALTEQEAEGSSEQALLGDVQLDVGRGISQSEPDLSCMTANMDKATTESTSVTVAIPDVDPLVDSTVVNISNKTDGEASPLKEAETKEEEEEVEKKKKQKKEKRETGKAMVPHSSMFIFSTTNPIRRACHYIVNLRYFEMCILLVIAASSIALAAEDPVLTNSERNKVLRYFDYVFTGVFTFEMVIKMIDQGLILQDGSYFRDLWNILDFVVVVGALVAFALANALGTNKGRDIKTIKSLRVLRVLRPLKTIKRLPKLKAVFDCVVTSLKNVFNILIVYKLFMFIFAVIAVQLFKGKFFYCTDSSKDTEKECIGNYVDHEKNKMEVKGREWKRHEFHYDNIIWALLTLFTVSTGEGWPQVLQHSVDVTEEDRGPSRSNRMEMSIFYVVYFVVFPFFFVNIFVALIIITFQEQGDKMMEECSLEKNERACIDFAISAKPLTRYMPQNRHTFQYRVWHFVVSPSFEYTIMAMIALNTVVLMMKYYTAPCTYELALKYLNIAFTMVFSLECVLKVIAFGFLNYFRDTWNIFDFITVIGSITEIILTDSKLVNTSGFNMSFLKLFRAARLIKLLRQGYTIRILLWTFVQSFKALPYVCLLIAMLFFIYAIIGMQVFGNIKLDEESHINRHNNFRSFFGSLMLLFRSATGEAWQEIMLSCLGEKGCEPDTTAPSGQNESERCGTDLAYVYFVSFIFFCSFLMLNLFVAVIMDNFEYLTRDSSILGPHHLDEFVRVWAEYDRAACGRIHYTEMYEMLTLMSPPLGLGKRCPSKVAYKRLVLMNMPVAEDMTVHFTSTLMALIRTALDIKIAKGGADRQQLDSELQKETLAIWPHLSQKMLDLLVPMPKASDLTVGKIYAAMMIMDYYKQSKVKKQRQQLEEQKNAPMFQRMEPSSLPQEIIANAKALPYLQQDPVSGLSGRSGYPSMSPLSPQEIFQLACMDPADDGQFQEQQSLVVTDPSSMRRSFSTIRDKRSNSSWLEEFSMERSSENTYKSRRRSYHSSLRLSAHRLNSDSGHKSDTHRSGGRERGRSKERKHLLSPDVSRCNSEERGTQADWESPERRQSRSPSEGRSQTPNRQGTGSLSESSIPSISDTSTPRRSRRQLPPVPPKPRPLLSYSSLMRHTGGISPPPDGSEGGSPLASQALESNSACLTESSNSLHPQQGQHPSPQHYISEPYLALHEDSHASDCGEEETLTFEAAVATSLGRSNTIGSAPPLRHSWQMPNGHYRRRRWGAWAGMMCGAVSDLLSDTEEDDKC
Method: Compounds of the invention were tested on R-type calcium current with whole cell patch clamp electrophysiology in substantia nigra dopamine neurons in an ex vivo brain slice preparation according to the methods described in Siller et al., Elife, 11:e67464 (2022) https://doi.org/i0.7554/eLife.67464.

T1 sequence (Q15878 whole entry, looked up): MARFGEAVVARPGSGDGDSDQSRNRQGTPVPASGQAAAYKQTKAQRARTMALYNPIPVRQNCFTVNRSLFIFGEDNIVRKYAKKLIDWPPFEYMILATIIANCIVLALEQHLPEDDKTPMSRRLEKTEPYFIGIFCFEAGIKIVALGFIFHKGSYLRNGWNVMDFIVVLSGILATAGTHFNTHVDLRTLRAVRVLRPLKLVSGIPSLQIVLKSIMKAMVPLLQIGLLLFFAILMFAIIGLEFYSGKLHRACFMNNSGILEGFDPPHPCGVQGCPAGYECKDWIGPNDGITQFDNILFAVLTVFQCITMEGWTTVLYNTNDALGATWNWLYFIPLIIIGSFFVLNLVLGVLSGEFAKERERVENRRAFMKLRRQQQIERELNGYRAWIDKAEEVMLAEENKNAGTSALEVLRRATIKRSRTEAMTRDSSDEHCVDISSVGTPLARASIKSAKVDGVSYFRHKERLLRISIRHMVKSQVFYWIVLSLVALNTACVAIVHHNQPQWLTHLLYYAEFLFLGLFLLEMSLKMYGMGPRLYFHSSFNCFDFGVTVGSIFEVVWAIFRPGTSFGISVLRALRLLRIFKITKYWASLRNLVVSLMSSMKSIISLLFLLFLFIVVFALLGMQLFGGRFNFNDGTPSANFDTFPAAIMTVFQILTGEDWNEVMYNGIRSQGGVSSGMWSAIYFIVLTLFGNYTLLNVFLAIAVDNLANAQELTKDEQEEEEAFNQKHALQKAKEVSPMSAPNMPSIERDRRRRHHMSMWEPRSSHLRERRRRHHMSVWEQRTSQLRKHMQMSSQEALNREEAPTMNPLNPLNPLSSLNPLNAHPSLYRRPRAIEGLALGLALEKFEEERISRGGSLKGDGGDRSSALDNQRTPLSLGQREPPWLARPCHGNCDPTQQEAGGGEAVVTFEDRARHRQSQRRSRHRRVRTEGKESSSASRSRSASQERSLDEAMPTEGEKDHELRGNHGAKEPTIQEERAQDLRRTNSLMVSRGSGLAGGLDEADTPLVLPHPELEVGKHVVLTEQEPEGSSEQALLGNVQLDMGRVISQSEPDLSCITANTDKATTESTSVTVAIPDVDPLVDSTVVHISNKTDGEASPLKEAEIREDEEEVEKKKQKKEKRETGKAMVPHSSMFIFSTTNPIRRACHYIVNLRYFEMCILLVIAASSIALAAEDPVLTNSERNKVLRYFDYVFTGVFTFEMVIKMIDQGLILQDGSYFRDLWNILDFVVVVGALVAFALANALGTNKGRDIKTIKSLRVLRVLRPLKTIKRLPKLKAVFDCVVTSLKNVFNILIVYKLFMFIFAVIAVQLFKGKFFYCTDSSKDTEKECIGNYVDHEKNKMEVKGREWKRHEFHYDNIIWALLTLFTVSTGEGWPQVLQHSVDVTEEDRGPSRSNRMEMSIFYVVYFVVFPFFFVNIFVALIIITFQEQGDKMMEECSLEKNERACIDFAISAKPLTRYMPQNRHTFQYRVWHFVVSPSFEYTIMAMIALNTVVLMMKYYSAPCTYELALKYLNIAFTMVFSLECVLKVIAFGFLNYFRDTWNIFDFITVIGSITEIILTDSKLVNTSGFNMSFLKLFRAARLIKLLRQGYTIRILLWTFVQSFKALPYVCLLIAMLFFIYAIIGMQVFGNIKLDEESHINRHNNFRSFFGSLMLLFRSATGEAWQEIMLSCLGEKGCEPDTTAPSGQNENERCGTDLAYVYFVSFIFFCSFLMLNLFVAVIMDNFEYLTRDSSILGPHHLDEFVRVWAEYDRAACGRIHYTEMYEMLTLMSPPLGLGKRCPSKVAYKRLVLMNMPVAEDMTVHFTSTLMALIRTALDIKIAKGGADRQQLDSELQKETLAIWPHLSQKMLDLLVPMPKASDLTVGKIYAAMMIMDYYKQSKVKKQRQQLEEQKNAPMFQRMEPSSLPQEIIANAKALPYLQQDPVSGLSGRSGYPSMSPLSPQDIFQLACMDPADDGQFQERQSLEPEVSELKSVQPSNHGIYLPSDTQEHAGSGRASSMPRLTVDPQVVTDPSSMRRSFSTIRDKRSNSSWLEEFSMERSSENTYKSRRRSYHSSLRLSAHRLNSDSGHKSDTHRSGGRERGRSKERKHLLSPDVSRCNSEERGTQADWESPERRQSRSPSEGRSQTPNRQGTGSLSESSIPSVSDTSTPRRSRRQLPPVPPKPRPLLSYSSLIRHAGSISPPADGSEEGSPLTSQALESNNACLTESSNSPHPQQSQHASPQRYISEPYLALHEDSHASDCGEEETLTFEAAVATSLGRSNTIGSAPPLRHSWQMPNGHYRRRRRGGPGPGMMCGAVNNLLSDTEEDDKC

IC50 (Cav2.3 [1])	Cav2.3 (pIC50) (Human Cav2.3 channel)	IC50 (Cav2.3 [2])	activity blocking R-type calcium current [3]	Compound	activity in the MES model (MES model of epilepsy)
42.7 nM				CCN([C@H](c1ccc(F)cc1)C(F)(F)F)S(=O)(=O)c1cncc(F)c1 (stereo in doubt) [Example 219, N-ethyl-5-fluoro-N-(2,2,2-trifluoro-1-(4-fluorophenyl)ethyl)pyridine-3-sulfonamide]	
1480 nM	6.14			CN(C(c1ccc(F)cc1)C(F)(F)F)S(=O)(=O)c1ccc(C#N)s1 (stereo not shown) [Example 2, 5-cyano-N-methyl-N-(2,2,2-trifluoro-1-(4-fluorophenyl)ethyl)thiophene-2-sulfonamide]	
447 nM	5.30			CCN([C@@H](c1ccc(F)cc1)C(F)(F)F)S(=O)(=O)c1ccc(C#N)s1 [Example 4, (S)-5-cyano-N-ethyl-N-(2,2,2-trifluoro-1-(4-fluorophenyl)ethyl)thiophene-2-sulfonamide]	
1350 nM	6.56			CCN([C@H](c1ccc(F)cc1)C(F)(F)F)S(=O)(=O)c1ccc(C#N)s1 [Example 5, (R)-5-cyano-N-ethyl-N-(2,2,2-trifluoro-1-(4-fluorophenyl)ethyl)thiophene-2-sulfonamide]	
1910 nM	5.16			CCN([C@@H](c1ccc(F)cc1)C(F)(F)F)S(=O)(=O)c1ccc(C)s1 [Example 9, (S)—N-ethyl-5-methyl-N-(2,2,2-trifluoro-1-(4-fluorophenyl)ethyl)thiophene-2-sulfonamide]	
2570 nM	5.41			Cc1ccc(S(=O)(=O)N(C)[C@H](c2ccc(F)cc2)C(F)(F)F)s1 [Example 13, (R)—N,5-dimethyl-N-(2,2,2-trifluoro-1-(4-fluorophenyl)ethyl)thiophene-2-sulfonamide]	
708 nM		794 nM		CCN(C(c1ccc(F)cc1)C(F)(F)F)S(=O)(=O)CC1CCOCC1 (stereo not shown) [Example 20, N-ethyl-1-(tetrahydro-2H-pyran-4-yl)-N-(2,2,2-trifluoro-1-(4-fluorophenyl)ethyl)methanesulfonamide]	
46.8 nM	7.87		active	CCN([C@H](c1ccc(F)cc1)C(F)(F)F)S(=O)(=O)c1cncc(C#N)c1 [Example 35, (R)-5-cyano-N-ethyl-N-(2,2,2-trifluoro-1-(4-fluorophenyl)ethyl)pyridine-3-sulfonamide]	active
302 nM	6.92			CCN([C@H](c1ccc(F)cc1)C(F)(F)F)S(=O)(=O)C1CCOCC1 [Example 63, (R)—N-ethyl-N-(2,2,2-trifluoro-1-(4-fluorophenyl)ethyl)tetrahydro-2H-pyran-4-sulfonamide]	
72.4 nM		35.5 nM		CN([C@H](c1ccc(C(F)(F)F)cc1)C(F)(F)F)S(=O)(=O)c1cncc(C#N)c1 [Example 68, (R)-5-Cyano-N-methyl-N-(2,2,2-trifluoro-1-(4-(trifluoromethyl)phenyl)ethyl)pyridine-3-sulfonamide]	
562 nM	7.01			CCN([C@H](c1ccc(F)cc1)C(F)(F)F)S(=O)(=O)c1cnc(C)nc1 [Example 77, (R)—N-ethyl-2-methyl-N-(2,2,2-trifluoro-1-(4-fluorophenyl)ethyl)pyrimidine-5-sulfonamide]	
67.6 nM	6.95			CCN([C@H](c1ccc(F)cc1)C(F)(F)F)S(=O)(=O)c1cncc(N2CCOCC2)c1 [Example 96, (R)—N-ethyl-5-morpholino-N-(2,2,2-trifluoro-1-(4-fluorophenyl)ethyl)pyridine-3-sulfonamide]	
148 nM	7.20			CCN(C(c1ccc(F)cc1)C(F)(F)F)S(=O)(=O)c1cncnc1 [Example 133, (R)—N-ethyl-N-(2,2,2-trifluoro-1-(4-fluorophenyl)ethyl)pyrimidine-5-sulfonamide]	
64.6 nM	7.50			CCN([C@H](c1ccc(F)cc1)C(F)(F)F)S(=O)(=O)c1ccn2ccnc2c1 [Example 136, (R)—N-ethyl-N-(2,2,2-trifluoro-1-(4-fluorophenyl)ethyl)imidazo[1,2-a]pyridine-7-sulfonamide]	
132 nM		25.7 nM		CN([C@H](c1ccc(Cl)cc1)C(F)(F)F)S(=O)(=O)c1cncc(C#N)c1 [Example 171, (R)—N-(1-(4-chlorophenyl)-2,2,2-trifluoroethyl)-5-cyano-N-methylpyridine-3-sulfonamide]	
295 nM	7.23			CN([C@H](c1ccc(C(F)(F)F)cc1)C(F)(F)F)S(=O)(=O)c1cncnc1 [Example 172, (R)—N-methyl-N-(2,2,2-trifluoro-1-(4-(trifluoromethyl)phenyl)ethyl)pyrimidine-5-sulfonamide]	
380 nM		178 nM		CN([C@H](c1ccc(Cl)cc1)C(F)(F)F)S(=O)(=O)c1ccc2nccn2c1 [Example 178, (R)—N-(1-(4-chlorophenyl)-2,2,2-trifluoroethyl)-N-methylimidazo[1,2-a]pyridine-6-sulfonamide]	
457 nM		145 nM		CN([C@H](c1ccc(Cl)cc1)C(F)(F)F)S(=O)(=O)c1ccn2ncnc2c1 [Example 191, (R)—N-(1-(4-chlorophenyl)-2,2,2-trifluoroethyl)-N-methyl-[1,2,4]triazolo[1,5-a]pyridine-7-sulfonamide]	
141 nM		30.2 nM		CN([C@H](c1ccc(Cl)cc1)C(F)(F)F)S(=O)(=O)c1cncc(F)c1 [Example 220, (R)—N-(1-(4-chlorophenyl)-2,2,2-trifluoroethyl)-5-fluoro-N-methylpyridine-3-sulfonamide]	
		100 nM		CN([C@H](c1ccc(F)cc1)C(F)(F)F)S(=O)(=O)c1cncc(C#N)c1 [Example 274, (R)-5-Cyano-N-methyl-N-(2,2,2-trifluoro-1-(4-fluorophenyl)ethyl)pyridine-3-sulfonamide]	
